Source: patent US20240148745A1, “COMPOUNDS FOR USE IN PROGRESSIVE MULTIPLE SCLEROSIS” (FONDAZIONE CENTRO SAN RAFFAELE, priority 2021, published 2024)

Columns and labels:
[1] = test system: human iPS-derived neuroprecursors; assay: Differentiation of human iPS-derived neuroprecursors into MBP+ oligodendrocytes; type: cell-based; settings: 1 μM in minimal medium, p<0.05
Description: NPC bearing a doxycycline inducible polycistronic construct containing SOX10, OLIG2 and NKX6.2^29 in a human safe harbor (passages 10 to 25) were singularized on day −3 by treatment with Accutase and plated on Matrigel-coated 12-well plates at a density of 100.000 cells per well in N2B27-medium containing equal parts of neurobasal (Invitrogen) and DMEM-F12 medium (Invitrogen) with 1:100 B27 supplement lacking vitamin A (Invitrogen), 1:200 N2 supplement (Invitrogen), 1% penicillin/streptomycin/glutamine (PSG), 3 μM CHIR99021 (Axon Medchem), 150 μM ascorbic acid and 0.5 μM SAG. The next day medium was changed to N2B27-medium containing 1 μg/ml doxycycline. On DO medium was changed to glial-induction medium (GIM) consisting of DMEM-F12 with 1:100 B27 supplement lacking vitamin A, 1:200 N2 supplement, 1% PSG, 1 μM SAG, 10 ng/mL NT3 (Peprotech), 10 ng/mL IGF-I (Peprotech), 200 μM AA (Sigma), 1:1000 Trace Elements B (Corning). For full medium conditions 10 ng/ml T3 was added. On Day 2 medium was changed to glial-differentiation medium (GDM) comprising DMEM-F12 with 1:100 B27 supplement lacking vitamin A, 1:200 N2 supplement, 1% PSG, 100 μM dbCAMP (Sigma), 100 μM AA, 1:1000. For full medium conditions 60 ng/mL T3, Trace Elements B 10 ng/mL, IGF-I, 10 ng/mL and NT3 were added to the culture. GDM was changed every other day. On day 7 cells were detached by treatment with Accutase and re-plated on laminin coated 48-well plates at densities of 10.000-12.000 cells per well. After 24 h cells were treated in minimal medium with either vehicle alone [0.01% (vol/vol) DMSO] as a negative control, 60 ng/mL T3 as a positive control, or with a drug candidate dissolved in DMSO. Medium was changed every other day. On D16 doxycycline was removed from the medium. Cells were fixed on D21 and analyzed via immunocytochemistry.
Immunocytochemistry. Cells were initially fixed with 4% PFA treatment for 20 min, RT. Following three washes with PBS cells were incubated with blocking solution containing 5% normal goat serum (NGS) and 5% FCS (fetal calf serum) in PBS for 30 min at RT to prevent unspecific binding of the antibodies. To detect intracellular antigens cells were permeabilized by adding 0.5% Triton X-100 to the Blocking-solution. Cells treated with Triton X-100 were washed three times with PBS each time for 5 min at RT. Primary antibodies (rat anti-MBP,1:50, Abcam, AB7349) were applied overnight, 4° C., in blocking solution. The next day cells were washed 3 times with PBS at RT, and afterwards incubated with secondary antibodies (AF488 Alexa Fluor anti-rat (goat), 1:500, Jackson/Dianova, #112-545-167) diluted in PBS for 1 h at RT. Secondary antibodies were subsequently removed by washing 3 times with PBS. Afterwards PBS containing a Dapi staining for nuclei was added for 5 minutes and afterwards washed off with PBS. Cells were kept at 4° C. until imaging.
Imaging and evaluation. From each condition (triplicates) 20-30 pictures were taken randomly chosen by the Dapi-signal. Cell numbers were determined by using an ImageJ Macro to count the nuclei whereas MBP positive cells were subsequently counted manually in black and white images.
The effect on oligodendroglial differentiation of 32 compounds (“Front runners”) was tested. Induced pluripotent stem cells in which the transcription factors SOX10, OLIG2, NKX6.2 were inserted in a doxycycline inducible manner into a human safe harbor were differentiated into neural stem cells. Differentiation into oligodendrocytes was induced by addition of doxycycline. Cells were cultured either in a minimal medium (MM) (negative control) or in MM with the different compounds at a concentration of 1 μM. Addition of T3 to the minimal medium served as a positive control.

[2] = test system: primary murine spinal cord culture; assay: Myelinating cell cultures from primary murine spinal cord; type: cell-based, mouse; settings: 1 μM
Protocol: Single cell suspensions are prepared from spinal cord of mouse embryos (E13) (adapted from Thomson, 2008) and 1.5×10^5 cells/well were plated into 96 well plates. Over time, these cultures mature and form axons, which later myelinate. Using spinal cord tissue facilitates the quantification of mature MBP+ oligodendrocytes and newly formed myelin by in-house high-content imaging system (Operetta High Content Imaging System, Perkin Elmer) with a 20× lens. From each well, 25 fields in a 5×5 matrix were scanned. Thirty-two “Front Runners” compounds were tested in replicates of five at 1 μM/DMSO, while T3, benzotropine and clemastine were used as positive controls, DMSO as negative/solvent control. Two experimental paradigms were applied: “Early treatment”: exposure to experimental agent from DIV7 to DIV14; “Late treatment”: exposure to experimental agent from DIV14-DIV21. On DIV21, cultures were fixed and stained (myelin: MBP, axons: NF200; nuclei: Hoechst). Imaging data were analysed using CellProfiler and in-house generated analysis pipeline.
Thirty-two “Front Runners” compounds were tested in replicates of five at 1 μM/DMSO, while T3, benztropine and clemastine were used as positive controls, DMSO as negative/solvent control. Two experimental paradigms were applied: “Early treatment”: exposure to experimental agent from DIV7 to DIV14; “Late treatment”: exposure to experimental agent from DIV14-DIV21. […] In “Late treatment” paradigm in myelin area evaluation were identified Vanoxerine, Roxadustat, Tamibarotene, Drinabant, Progesterone, Saracatinib. In quantification of myelinated axons were identified Vanoxerine, Drinabant, Roxadustat.

[3] = test system: rat oligodendrocyte progenitor CG4 line; assay: Differentiation assay on rat oligodendrocyte progenitor CG4 line (HCS, mCherry+); type: cell-based; settings: secondary screen of 49 selected compounds, 1 μM, 5 days
Description: Primary validation on CG4 line toxicity and differentiation. An innovative OPC line was developed for fast and reliable high content screening (HCS) of small compounds inducing oligodendrocyte differentiation. The line was genetically engineered by lentiviral transduction of rat CG4 cells (PubMed=1613821; DOI=10.1002/jnr.490310125; Louis J. C., Magal E., Muir D., Manthorpe M., Varon S.; CG-4, a new bipotential glial cell line from rat brain, is capable of differentiating in vitro into either mature oligodendrocytes or type-2 astrocytes. J. Neurosci. Res. 31:193-204(1992) to express mCherry fluorescent reporter (Evercooren, Anne & Avellana-Adalid, V. & Vitry, Sandrine & Nait-Oumesmar, Brahim & Lachapelle, Francois. (1997). Expansion of Oligodendrocyte Progenitors for Myelin Repair. 10.1007/978-1-4615-5949-8_21) in mature oligodendrocytes only, and EGFP at all stage of the oligodendroglial lineage: both the generation of mature oligodendrocytes (wmNl-mCherry) and the morphological changes associated with differentiation (CMV-EGFP) can be therefore monitored in a single assay. mCherry expression occurred only in O4+/GalC+ differentiated oligodendrocytes and GFP was ubiquitously expressed at all developmental stages. The line so obtained was validated using compounds with well-established effects on oligodendrocyte differentiation (cAMP and T3). Cell-based assay was standardized on the HCS platform (ArrayScanXTI, Brain and Spine Institute (Paris), validating the pro-differentiation effects of clemastine^27 and 9cis-retinoic acid.^28 For HCS validation of 274 compounds identified through in silico screen, double-fluo CG4 line cells were plated in 96 well-plates, 6500 cells/cm^2 and left for 24 h in proliferation. The other day, compounds were added (1 μM) for next 5 days of differentiation, with ⅔ medium changed after 3 days. 9-cis Retinoic Acid (9cis-RA; […]) served as a positive control, negative controls were basal (N1) medium and vehicle (basal+0.1% DMSO). Each compound was tested in triplicate and were imaged with ArrayScanXTI system (35 fields/well) after 5 days of differentiation.
FIG. 4 provides a schematic representation of High Content Screening (HCS) validation of the 274 compounds identified through in silico screening using CG4 line. […] In addition, the whole short list of 160 non-toxic compounds were screened using the CG4 high content phenotypic assay to further confirm the data from primary screening and to potentially select additional compounds with pro-myelinating activities. From this screening of the short list, 49 hit compounds were identified that increase differentiation either of CG4 cells or primary OPCs (FIG. 6).

rat primary OPC cultures = assay: Differentiation of rat primary OPC into MBP+ OLs; type: cell-based; settings: 96 h, 4 days of differentiation, read-out: MBP+ differentiation (MBP+/SOX10+ OLs plus compounds / plus basal medium)
Protocol: Secondary validation on primary rat OPC differentiation. Re-validation of the best performing compounds promoting OPC differentiation (fold change >1.5) was performed on primary rat OPC cultures in 96 well-plate run in triplicates by triple immunolabeling for CNPase, MBP and SOX10 as a readout. Compounds at […] were added for 4 days of differentiation and then cell cultures were imaged with ArrayScanXTI platform, number of MBP+OLs were quantified by semi-automated software. Basal medium served as a negative control, 9 cis-RA ([…]) was a positive control.
Re-validation of the 49 compounds selected from the short list (160 compounds) using rat primary OPC cultures (compounds tested in triplicates in 3 independent experiments. The secondary validation screen of these compounds performed on rat primary OPC cultures selected 17 best lead compounds with a pro-differentiation activity (MBP+/SOX10+OLs plus compounds/MBP+SOX10+ plus basal medium fold increase) induced a strong differentiation into MBP+OLs (fold increase >1.6). Results are shown in FIG. 7.

| Compound | differentiation into MBP+ oligodendrocytes [1] | differentiation into MBP+ oligodendrocytes ([1]; listed as Drinibant) | myelin area ([2]; Early treatment DIV7 to DIV14) | myelin area ([2]; Late treatment DIV14-DIV21) | quantification of myelinated axons ([2]; Late treatment DIV14-DIV21) | CG4 differentiation compared with 9cis-RA positive control [3] | fold induction at 1 µM (rat primary OPC cultures) | quantification of myelinated axons ([2]; Early treatment DIV7 to DIV14) |
| --- | --- | --- | --- | --- | --- | --- | --- | --- |
| CS(=O)(=O)N(c1cc(F)cc(F)c1)C1CN(C(c2ccc(Cl)cc2)c2ccc(Cl)cc2)C1 [Drinabant] | promote significantly the differentiation into MBP+ oligodendrocytes | promote significantly (p<0.05) the differentiation into MBP+ oligodendrocytes | identified | identified | identified | promoting differentiation significantly higher than 9cis-RA positive control |  |  |
| CCNC(=O)C1CC(F)(c2ccc(CN3CCCC3)c(F)c2)C1 (stereo not drawn) [PF-03654746] | promote significantly (p<0.05) the differentiation into MBP+ oligodendrocytes |  | identified |  |  | promoting differentiation significantly higher than 9cis-RA positive control |  |  |
| CNC(=O)c1cc(COc2nnc(Nc3ccc(Cl)cc3)c3ccoc23)ccn1 [Telatinib] | promote significantly (p<0.05) the differentiation into MBP+ oligodendrocytes |  |  |  |  | promoting differentiation significantly higher than 9cis-RA positive control | > 1.6 |  |
| Cc1c(F)cccc1NC(=O)Nc1ccc(Cl)c(S(=O)(=O)[C@H]2CCCNC2)c1O [Danirixin] | promote significantly (p<0.05) the differentiation into MBP+ oligodendrocytes |  |  |  |  | promoting differentiation significantly higher than 9cis-RA positive control |  |  |
| Fc1ccc(C(OCCN2CCN(CCCc3ccccc3)CC2)c2ccc(F)cc2)cc1 [Vanoxerine] |  |  | identified | identified | identified | promoting differentiation significantly higher than 9cis-RA positive control |  | identified |
| CCC/N=C1\S/C(=C\c2ccc(OC[C@H](O)CO)c(Cl)c2)C(=O)N1c1ccccc1C [Ponesimod] | promote significantly (p<0.05) the differentiation into MBP+ oligodendrocytes |  | identified |  |  | promoting differentiation significantly higher than 9cis-RA positive control |  |  |
| Cc1ccc(C(=O)Nc2ccc(Oc3cc4cnn(C)c4cc3-c3cn[nH]c3)c(F)c2)c(=O)n1-c1ccc(F)cc1 [Merestinib] | promote significantly (p<0.05) the differentiation into MBP+ oligodendrocytes |  |  |  |  | promoting differentiation significantly higher than 9cis-RA positive control |  |  |
